Results published in patent US20220169680A1 (priority 2018, published 2022).

What follows are sequences tested on A549 cells.
Format: cell-based

| Sequence | cell entry of rhodamine-labeled polypeptide |
| --- | --- |
| KRGPSTAGVPESMREEYRQEQQN [A/HongKong/97/98(H5N1)-M2-N-M-AH(60-82)] | did not enter the cells |
| KRGPSTEGVPESMREEYREEQQN [Caledonia/20/1999(H1N1)-M2-N-M-AH(60-82)] | did not enter the cells |

System: A549 cells
Format: cell-based
Remark: another data set of the same source

| Sequence | cell-penetrating peptide function compared with the parent polypeptide | cell entry at all time points | cell entry signal / cell entry properties |
| --- | --- | --- | --- |
| DRFFFKCFYRRLK [Jilin-2004(H5N1)-M2-44-56 mut9] | enhanced compared to the parent polypeptide | – | – |
| DRFFFKRIFRRLKYRLKRRPST [Jilin-2004(H5N1)-M2-44-65 mut10] | stronger than that of the parent Jilin-2004(H5N1)-M2-44-65 polypeptide | – | – |
| DRKRRKCKYRRKKYGRKR [Jilin-2004(H5N1)-M2-44-61 mut14] | stronger than that of the parent Jilin-2004(H5N1)-M2-44-61 polypeptide | – | – |
| DRLFFKCIYRRLKYGRKR [Jilin-2004(H5N1)-M2-44-61 mut13] | stronger than that of the parent Jilin-2004(H5N1)-M2-44-61 polypeptide | – | – |
| DRLFFRRIYRRLRYRLRRRPST [Jilin-2004(H5N1)-M2-44-65 mut24] | stronger than that of the parent Jilin-2004(H5N1)-M2-44-65 polypeptide | – | – |
| ERGLQRRRFVQNALN [NC, reference compound] | – | no entry of polypeptides was observed | – |
| GPSTEGVPESMREEYRQE [FITC-Jilin-2004(H5N1)-M2-62-79] | – | – | did not show cell entry properties |
| KYGLKRGPSTEGVPESMR [FITC-Jilin-2004(H5N1)-M2-56-73] | – | – | did not show cell entry properties |
| LKRGPSTEGVPESMREEY [FITC-Jilin-2004(H5N1)-M2-59-76] | – | – | did not show cell entry properties |
| MSLLTEVETPTRNGWECRCSDSSD [Jilin-2004(H5N1)-M2-1-24] | – | – | no cell entry signal was detected |
| PLVVAASIIGILHLILWIL [Jilin-2004(H5N1)-M2-25-43] | – | – | no cell entry signal was detected |
| RRLKYGLKRGPSTEGVPE [FITC-Jilin-2004(H5N1)-M2-53-70] | – | – | did not show cell entry properties |
| TEGVPESMREEYRQEQQS [FITC-Jilin-2004(H5N1)-M2-65-82] | – | – | did not show cell entry properties |

System: A549 cells
Format: cell-based
Remark: another data set of the same source

| Sequence | ability to carry small RNA into cells compared with the transfection reagent RNAiMax group, qPCR | ability to carry small RNA (PGY-sRNA-26) into cells, qPCR |
| --- | --- | --- |
| DRFFFKCFFRRFKFGLKRGPST [Jilin-2004(H5N1)-M2-44-65 mut6] | stronger than the transfection reagent RNAiMax group | – |
| DRFFFKCIFRRLKFGLKRGPST [Jilin-2004(H5N1)-M2-44-65 mut5] | stronger than the transfection reagent RNAiMax group | – |
| DRFFFKCIYRRLKYGLKRGPST [Jilin-2004(H5N1)-M2-44-65 mut1] | stronger than the transfection reagent RNAiMax group | – |
| DRFFFKCIYRRLKYGLKRRPST [Jilin-2004(H5N1)-M2-44-65 mut2] | stronger than the transfection reagent RNAiMax group | – |
| DRFFFKRIFRRLKFRLKRRPST [Jilin-2004(H5N1)-M2-44-65 mut11] | stronger than the transfection reagent RNAiMax group | – |
| DRKRRKCKYRRKKYGRKR [Jilin-2004(H5N1)-M2-44-61 mut14] | stronger than the transfection reagent RNAiMax group | – |
| DRLFFICIYRRLKYGLKR [Jilin-2004(H5N1)-M2-44-61 mut6] | stronger than the transfection reagent RNAiMax group | – |
| DRLFFKCIYRRLKYGLII [Jilin-2004(H5N1)-M2-44-61 mut16] | stronger than the transfection reagent RNAiMax group | – |
| DRLFFKCIYRRRKRGLKR [Jilin-2004(H5N1)-M2-44-61 mut12] | stronger than the transfection reagent RNAiMax group | – |
| DRLFFKIIYRRLKYGLKR [Jilin-2004(H5N1)-M2-44-61 mut8] | stronger than the transfection reagent RNAiMax group | – |
| DRLFFRRIYRRLKYGLKRGPST [Jilin-2004(H5N1)-M2-44-65 mut23] | stronger than the transfection reagent RNAiMax group | – |
| DRRFFKCIYRRLKYGLKR [Jilin-2004(H5N1)-M2-44-61 mut4] | stronger than the transfection reagent RNAiMax group | – |
| DRRRRKCRRRRRKYGRKR [Jilin-2004(H5N1)-M2-44-61 mut10] | stronger than the transfection reagent RNAiMax group | – |
| KRGPSTEGVPESMREEYRQEQQS [Jilin-2004(H5N1)-M2-60-82] | – | Only the polypeptide Jilin-2004(H5N1)-M2-45-62 had the ability to carry small RNA into the cells |
| MSLLTEVETPTRNGWECRCSDSSD [Jilin-2004(H5N1)-M2-1-24] | – | Only the polypeptide Jilin-2004(H5N1)-M2-45-62 had the ability to carry small RNA into the cells |
| PLVVAASIIGILHLILWIL [Jilin-2004(H5N1)-M2-25-43] | – | Only the polypeptide Jilin-2004(H5N1)-M2-45-62 had the ability to carry small RNA into the cells |
| RAFFKCIYRRLKYGLKRG [Jilin-2004(H5N1)-M2-45-62 mut46] | stronger than the transfection reagent RNAiMax group | – |
| RFFFKCFYRRLKYGLKRG [Jilin-2004(H5N1)-M2-45-62 mut8] | stronger than the transfection reagent RNAiMax group | – |
| RLFFKCIKRRLKYGLKRG [Jilin-2004(H5N1)-M2-45-62 mut52] | stronger than the transfection reagent RNAiMax group | – |
| RLFFKCIYRRAKYGLKRG [Jilin-2004(H5N1)-M2-45-62 mut55] | stronger than the transfection reagent RNAiMax group | – |
| RLFFKCIYRRLKYGAKRG [Jilin-2004(H5N1)-M2-45-62 mut59] | stronger than the transfection reagent RNAiMax group | – |
| RLFFKCIYRRLTYGLKRG [Jilin-2004(H5N1)-M2-45-62 mut56] | stronger than the transfection reagent RNAiMax group | – |
| RLFFKCIYSRLKYGLKRG [Jilin-2004(H5N1)-M2-45-62 mut53] | stronger than the transfection reagent RNAiMax group | – |
| RLFFRCIYRRLKYGLKRG [Jilin-2004(H5N1)-M2-45-62 mut1] | stronger than the transfection reagent RNAiMax group | – |
| RLIFKCIYRRLKYGLKRG [Jilin-2004(H5N1)-M2-45-62 mut47] | stronger than the transfection reagent RNAiMax group | – |
| RRFFFKCFFRRFKFGLKRGPST [Jilin-2004(H5N1)-M2-44-65 mut7] | stronger than the transfection reagent RNAiMax group | – |
| RRLFFKCIYRRLKYGLKR [Jilin-2004(H5N1)-M2-44-61 mut1] | stronger than the transfection reagent RNAiMax group | – |
| RRLFFKCIYRRLKYGLKRGPST [Jilin-2004(H5N1)-M2-44-65 mut15] | stronger than the transfection reagent RNAiMax group | – |
